Test results from patent publication US7186521B2, “Determining the effect of a substance on sequestration, uptake, and accumulation of amyloid in brain cells” (The Regents of the University of California, priority 2000, dated 2007).
Entries after “also recorded” stand apart in the source; their conditions may differ. Ends that are not written are not given here.

Legend:
[1] = system: cultured hippocampal slices; assay: Aβ1–42 uptake/internalization in cultured hippocampal slices (Aβ1–42 immunocytochemistry, NIH Image quantification); assay type: cell-based, Sprague-Dawley rat; conditions: for number of Aβ-ir particles within the sample field / size (average area) of individual Aβ-ir particles / total area encompassed by Aβ-ir elements: CA1b stratum pyramidale; for number of Aβ-ir particles within the sample field: Aβ1–42 plus antagonist vs Aβ alone (FIG. 4G), significant for GRGDSP only; for size (average area) of individual Aβ-ir particles / total area encompassed by Aβ-ir elements: Aβ1–42 plus antagonist; for size (average area) of individual Aβ-ir particles: mean±sem relative to Aβ alone (FIG. 4E); for total area encompassed by Aβ-ir elements: mean±sem relative to Aβ alone (FIG. 4F); for effect on sequestration/uptake/internalization of Aβ1–42: co-incubated with Aβ1–42, 6 days, GRGDSP and GRADSP 2 mM, echistatin 2 μM; for slices with intraneuronal Aβ1–42 immunostaining: Aβ1–42 plus antagonist (GRGDSP 2 mM; echistatin 2 μM)
Method: (§1) Organotypic hippocampal cultures were prepared using the technique of Stoppini et al. (1991). Briefly, hippocampi were harvested from brains of 9–12 days old Sprague-Dawley rat pups under sterile conditions. Sections were cut (400 μm thick) perpendicular to the long axis of hippocampus using a Mclllwain tissue chopper and were collected into a cutting medium consisting of MEM with Earle's salts (Gibco, Rockville Md.), 25 mM HEPES, 10 mM Tris base, 10 mM glucose, and 3 mM MgCl2 (pH 7.2). Slices were positioned onto 30 mm cell culture inserts (Millicell-CM, Millipore, Bedford, […].) that were placed in 6 well culture trays with 1 ml of growth medium per well [growth medium: MEM with Hank's salts (Gibco), 20% horse serum, 3 mM glutamine, 25 mM HEPES, 5 mM NaHCO3, 25 mM glucose, 0.5 mM ascorbate, 2 mM CaCl2, 2.5 mM MgCl2, 0.5 mg/1 insulin, and penicillin, pH 7.2]. The cultures were incubated at 35° C. with a 5% CO2-enriched atmosphere and the media was changed every other day until use 10–12 days later.
(§2) Cultured hippocampal slices were exposed to media containing the human Aβ1–42 sequence in the presence or absence of the integrin antagonist peptide, Gly-Arg-Gly-Asp-Ser-Pro, or GRGDSP (SEQ. ID. No.3) (2 mM dissolved in media) (Ruoslahti, E., Ann Rev Cell Dev Biol 12:697–715 (1996)). In some cases, slices were co-treated with the specific NMDA receptor antagonist 2-amino-5-phosphonovalerate (AP5) (Sigma) at 50 μM. Control slices in neighboring wells received media-vehicle only. Aβ1–42 peptide solution was freshly prepared before the start of the experiment using 0.1N NaOH, pH adjusted with 0.1N HCl to 7.4, and then diluted with serum-free culture medium. Aβ was applied at 30 μM for 8–10 hr after which it was diluted to 15 μM by the addition of fresh culture media containing heated treated horse serum. Treatment was repeated every other day for a total 6 days. Disintegrins are small (4–10 kDa) RGD-containing, cysteine-rich peptides from snake venom that bind integrins with high affinity (Kd˜1 nM–0.1 μM) and are potent antagonists of integrin functions (Huang, T. F., Cell Mol Life Sci 54:527–540 (1998)for review). In some experiments the disintegrin echistatin (2 μM dissolved in media) was applied instead of GRGDSP (SEQ. ID. No.3).
(§3) The following treatment, slices were thoroughly washed with 0.1M sodium phosphate buffered saline (PBS), fixed for 12–16 hr in cold 0.1M phosphate buffer (PB; pH 7.2) containing 4% paraformaldehyde, cryoprotected in 20% sucrose/PB for 1–2 hr and then carefully removed from the insert membranes. Serial sections were cut at 25 μm thick, parallel to the broad face of the explant, using a freezing microtome. Immunocytochemistry was performed using the standard avidin biotin horseradish peroxidase complex (ABC) method using reagents and instructions of the VECTASTAIN® Elite ABC kit from Vector Laboratories (Burlingame, Calif.) with diaminobenzidine tetrahydrochloride (0.05% in 50 mM Tris-HCl buffer, pH 7.4) as chromagen and PBS for rinses and as diluent for antibody incubations. Briefly, free-floating sections were preincubated with 3% normal goat serum (for anti-Aβ1–42 and anti-cathepsin D antibodies) or 10% normal horse serum (for ED-1) in PBS for 1 hr at room temperature. […] Sections were washed in PBS, incubated in biotinylated anti-rabbit or anti-mouse IgG (both at 1:200) for 2–3 hr, washed in PBS, incubated in the avidin-biotin complex solution for 45 min and then processed through the diaminobenzidine reaction. After final rinses in PBS, sections were mounted on SuperFrost Plus slides (Fisher Scientific, Pittsburgh), air-dried, dehydrated in a series of graded ethanols, and coverslipped from Clearing Solvent (Stephens Scientific, Kalamazoo, Mich.) with Permount (Fisher).
Images centered on CA1b stratum pyramidale were obtained at 40× objective magnification using a Sony DKC-5000 digital camera attached to a Zeiss Universal microscope. […]

cathepsin D = assay: Cathepsin D immunoreactivity in cultured hippocampal slices; assay type: cell-based, Sprague-Dawley rat
Method: as §1, §2
The following treatment, slices were thoroughly washed with 0.1M sodium phosphate buffered saline (PBS), fixed for 12–16 hr in cold 0.1M phosphate buffer (PB; pH 7.2) containing 4% paraformaldehyde, cryoprotected in 20% sucrose/PB for 1–2 hr and then carefully removed from the insert membranes. Serial sections were cut at 25 μm thick, parallel to the broad face of the explant, using a freezing microtome. […]

reactive microglia = assay: Microglial activation (ED-1 immunoreactivity) in cultured hippocampal slices; assay type: cell-based, Sprague-Dawley rat; conditions: for effect on ED-1-ir microglia: 50 μM AP5 with Aβ1–42 and 2 mM GRGDSP, 6 days; for number of ED-1 positive cells: treatment by itself
Method: as §1, §2
as §3, with “After final rinses in PBS, sections were mounted on SuperFrost Plus slides (Fisher Scientific, Pittsburgh), air-dried, dehydrated in a series of graded ethanols, and coverslipped from Clearing Solvent (Stephens Scientific, Kalamazoo, Mich.) with Permount (Fisher).” left out

[2] = system: integrin binding to fibronectin and vitronectin; conditions: literature; used as inactive control peptide; cited from earlier work
CHO cells = CHO cells in culture; Matter et al. 1998; cited from earlier work
[3] = system: LTP stabilization in field CA1 of hippocampus; conditions: injection of 5 μM echistatin; Chun et al., 2001; cited from earlier work
RGD-binding integrins = assay: cell-based or functional assay
[4] = 50 μM AP5 with Aβ1–42 and 2 mM GRGDSP, 6 days
[5] = treatment alone, 6 days, count of slices with Aβ-ir out of number of slices tested (Aβ 45, RGD 14)
[6] = treatment alone, 6 days (GRGDSP 2 mM)
[7] = Aβ + antagonist co-incubation, 6 days, count out of slices tested (61, 16, 21, 16), RGD and RAD 2 mM, Ech 2 μM

NC(CCCP(=O)(O)O)C(=O)O (stereo not shown) [AP5, 2-amino-5-phosphonovalerate]
effect on GRGDSP-enhanced Aβ1–42 uptake [1, 4]: completely blocked Aβ1–42 uptake; also recorded: completely eliminated Aβ uptake
effect on cathepsin D-ir (cathepsin D; [4]): almost totally suppressed; also recorded: suppressed cathepsin D-ir
effect on ED-1-ir microglia (reactive microglia): ED-1-ir (C′) to vehicle control levels
effect on ED-1-ir microglia (reactive microglia; listed as AP-5): greatly reduced

Aβ1–42: human amyloid beta peptide, 42-residue form, applied exogenously to slices
slices with intraneuronal Aβ1–42 immunoreactivity (Aβ-ir) ([1]; Aβ1–42 alone, 6 days): 42%
Aβ positive cases [1, 5]: 19
cathepsin D-ir (cathepsin D; [6]): did not cause substantial increases in cathepsin D-ir
number of ED-1 positive cells (reactive microglia): did not cause a noticeable increase in the number of ED-1 positive cells

GRADSP
Aβ positive cases [1, 7]: 9
number of Aβ-ir particles within the sample field [1]: did not cause significant changes
size (average area) of individual Aβ-ir particles [1]: did not cause significant changes
total area encompassed by Aβ-ir elements [1]: did not cause significant changes
effect on sequestration/uptake/internalization of Aβ1–42 [1]: did not measurably affect sequestration of Aβ1–42; also recorded: modest
antagonism of integrin binding to fibronectin and vitronectin [2]: very weak antagonist

Gly-Arg-Gly-Asp-Ser-Pro [GRGDSP]
slices with intraneuronal Aβ1–42 immunostaining ([1]; 6 days): More than 88%
number of Aβ-ir particles within the sample field [1]: increased the numbers of Aβ-ir particles
size (average area) of individual Aβ-ir particles [1]: +101±13%
total area encompassed by Aβ-ir elements [1]: 324±16%
effect on sequestration/uptake/internalization of Aβ1–42 [1]: markedly increase sequestration of the exogenous peptide; also recorded: markedly enhances uptake in cultured hippocampal slices; also recorded: enhanced; also recorded: increased the uptake of Aβ1–42 peptide
induction of Aβ-ir ([1]; peptide by itself, without Aβ1–42): did not induce Aβ-ir
Aβ positive cases [1, 5]: 0
cathepsin D-ir (cathepsin D; Aβ1–42 plus 2 mM GRGDSP, 6 days): generated intense intraneuronal cathepsin D-ir; also recorded: elevated
cathepsin D-ir (cathepsin D; [6]): did not increase cathepsin D-ir
microglial response (ED-1-ir) (reactive microglia; Aβ1–42 and GRGDSP applied together): produced a pronounced microglial response
number of ED-1 positive cells (reactive microglia): did not cause a noticeable increase in the number of ED-1 positive cells
effect on binding and uptake of Aβ (CHO cells): block the binding and uptake of Aβ in CHO cells

echistatin (QCESGPCCRNCKFLKEGTICKRARGDDMDDYCNGKTCDCPRNPHKGPAT)
slices with intraneuronal Aβ1–42 immunostaining ([1]; 6 days): 86%
Aβ positive cases [1, 7]: 18
number of Aβ-ir particles within the sample field [1]: increased the numbers of Aβ-ir particles
size (average area) of individual Aβ-ir particles [1]: +95±13%
total area encompassed by Aβ-ir elements [1]: 233±24%
effect on sequestration/uptake/internalization of Aβ1–42 [1]: significantly enhanced Aβ internalization; also recorded: increased the uptake of Aβ1–42 peptide
effect on LTP stabilization [3]: selectively disrupts LTP stabilization

GRGDSP [integrin antagonist peptide Gly-Arg-Gly-Asp-Ser-Pro (GRGDSP)]
Aβ positive cases (slices with intraneuronal Aβ1-42 immunoreactivity), Aβ + RGD, of 61 slices tested (slices (of 61 tested)) (RGD-binding integrins): 54
increase in size (mean area) of Aβ-ir elements in CA1 stratum pyramidale, relative to Aβ alone (RGD-binding integrins): 101%
total area encompassed by Aβ-immunoreactive elements, relative to Aβ alone (RGD-binding integrins): 324%

GRADSP [inactive control peptide Gly-Arg-Ala-Asp-Ser-Pro (GRADSP)]
Aβ positive cases (slices with intraneuronal Aβ1-42 immunoreactivity), Aβ + RAD, of 16 slices tested (slices (of 16 tested)) (RGD-binding integrins): 9
